The text below walks through data of US12605382B2, “Pharmaceutical composition for preventing, alleviating, or treating cancer containing 2,6-dichloro-4-(4-(4-hydroxycyclohexylamino)-7H- pyrrolo[2,3-d]pyrimidin-5-yl)phenol as active ingredient” (JBKLAB CO., LTD., priority 2021, dated 2026).

One test deals with MDA-MB-453. Kind of test: Cell viability, breast cancer cell line. Type of test: cell-based. The settings on record: MDA-MB-453, 24 hours, dose dependently. The method, then: FIGS. 4A-4C show the cell viability of MDA-MB-231, MDA-MB-453, and BT-20 after 24 hours of treatment with the compound of Example 1. As shown in FIGS. 4A-4C, it was confirmed that the cell viability was suppressed not only in general breast cancer cell lines, but also in TNBC cell lines dose dependently.

Test [1] has as its system breast cancer cells (MBA-MB-231). Kind of test: Xenograft tumor growth inhibition, TNBC cells in nude mice. The following applies: xenograft Balb/c nude mice, tumor size measured for 3 weeks. Type of test: in vivo. How it is done:
An experiment was performed to confirm the tumor inhibition of the compound of Example 1, the active ingredient of the pharmaceutical composition of the present invention, on a xenograft tumor sample of breast cancer cells (MBA-MB-231), a human-derived TNBC cell line.
Specifically, to confirm the […] inhibitory effect of the compound of Example 1, the active ingredient of the pharmaceutical composition of the present invention, on breast cancer cell viability, an experiment was performed using 80 female 5-week-old xenograft Balb/c nude mice, which were approximately 8 weeks old at the start of administration.
The experimental xenograft Balb/c nude mice lacks T cells, the immune cells, were selected as an animal model suitable for transplanting human cancer cells. At the time of administration, animals within ±20% of the total average body weight were selected, and tumor growth was checked twice a week on the surface, and the size of the tumor was measured with a vernier caliper for 3 weeks.

In the next test the test system is M1 TAM. Kind of test: Flow cytometric analysis (FACS) of tumor tissue, 4T1 allograft model. Type of test: in vivo, BALB/c mice. How it is done: (§1) The tumor tissues from each mouse were subjected to single cell isolation, followed by flow cytometric analysis (FACS) to confirm the immunomodulatory effect.
(§2) Specifically, the spleen and tumor of the mouse were extracted 31 days after tumor cell injection in the same manner as in Example 8. After the tumor tissue was excised, it was mechanically processed by fine chopping using a sterilized razor blade, and then treated with DNase (0.1 mg/ml) and collagenase (1 mg/ml), respectively, and reacted at 36° C. for 30 minutes to obtain a single cell suspension. To analyze infiltrating leukocytes after isolation of single cells from the tumor tissue, […] cells per FACS tube were stained with FITC, PE, PerCP/Cy5.5, and APC fluorescence using CD3 antibody, CD8b antibody, CD4 antibody, CD11b antibody, F4/80 antibody, and CD206 antibody. For each stained sample, the fraction of CD8+ cytotoxic T cells was calculated using BD Bioscience FACSCalibur machines. Analysis of the FACS results was performed using FlowJo software, version 10.
On the technique in general: A flow cytometer gives signals particle by particle.

The subject of a further test is M2 TAM. Described as above. Type of test: in vivo, BALB/c mice. How it is done: as §1, §2
For the next test, the system named is CD8+ T cells. The description is as above. Type of test: in vivo, BALB/c mice. The following applies: 31 days. How it is done: as §1, §2
A further test relates to Hep3B. Kind of test: Clonogenic assay. Type of test: cell-based. The following applies: 2.5 and 5 μM, 10 days. How it is done: (§3) HepG2 and Hep3B were each seeded in 12-well plates at the density of 3×10^3 cells/well and cultured for 24 hours. Then, Sorafenib and the compound of Example 1 were treated thereto at 2.5 and 5 μM each and cultured for 10 days. Upon completion of the culture, the cells were washed with PBS, fixed with 37% formaldehyde, and stained with 0.01% crystal violet. After staining, the cells were washed with distilled water and the colonies of stained cells were photographed.

The next test has as its system HepG2. Kind of test: Clonogenic assay. Type of test: cell-based. The settings on record: 2.5 and 5 μM, 10 days. The method, then: as §3

With `Oc1c(Cl)cc(-c2c[nH]c3ncnc(N[C@H]4CC[C@H](O)CC4)c23)cc1Cl` [Example 1, (trans)-2,6-dichloro-4-(4-(4-hydroxycyclohexylamino)-7H-pyrrolo[2,3-d]pyrimidin-5-yl)phenol], the cell viability result with MDA-MB-453 is reported as “suppressed”. Moreover, the tumor growth result in test [1] is listed as “significantly inhibit the tumor growth”. The “M1 TAM” value is listed as “significantly (P<0.01) increased” with M1 TAM (alone) and “increase” in the test on M1 TAM (combined with radiation). Also, the “M2 TAM” value in the test with M2 TAM (alone) is “significantly (P<0.01) decreased”; with M2 TAM (combined with radiation) it was “decrease”. Further, the “proportion of CD8+ T cells in tumor” value with CD8+ T cells (alone) is recorded as “increased”. The “proportion of CD8+ T cells in tumor compared to each administration alone” value in the test on CD8+ T cells (combined with radiation) is “significantly increased”. Besides, the “number of colonies, treated vs not treated” value in the test with Hep3B and with HepG2 was “clear difference in the number of colonies” throughout.
